Measurements published in patent US7632814B2, “HYD1 peptides as anti-cancer agents” (University of South Florida, priority 2006, dated 2009).
Where no end group is shown, it is not given here. [ ]: non-standard residue; d: D form.

Columns and labels:
H929 MM = assay: SCID-Hu in vivo model, tumor burden; set-up: species or system SCID mice; settings: H929, 8 mg/kg I.P. daily for 14 days starting day 28
Method: Tumor burden was measured by circulating […] levels. On day 28 (before drug treatment), measurements were recorded for each individual mouse and subsequent values obtained weekly are represented as a ratio of day 28 (day X/day 28). N=4 mice per group. HYD1 was administered I.P. at 8 mg/kg daily for 14 days (starting day 28).
SCID-Hu model. The SCID-Hu model was performed as previously described (Zhu K et al. Blood, 2005; 105:4759-4766). Briefly, SCID/Beige mice 4-6 weeks old were purchased from Taconic (Germantown, N.Y.). Fetal tissue (18-23 weeks) was obtained from Advance Bioscience Resource (Alameda, Calif.) in compliance with state and federal government regulations. Two bones were surgically implanted in the mammary fat pad of 6-8 week old female SCID mice. […] At 28 days, baseline tumor burden was quantified in the sera using either a lambda (8226) or kappa (H929) ELISA kit per manufacture instructions (Bethyl, Montgomery, Tex.) and mice were randomized into treatment groups. […] Tumor burden was assessed weekly by measuring kappa or lambda levels in the sera.
The SCID-Hu model consists of implanting human fetal bone into the mammary mouse fat pad of SCID mice. […] Human paraprotein can be measured in the mouse sera and levels represent a good marker for evaluating tumor burden and response to chemotherapy. […]

H929 cells = assay: Detection of apoptosis, annexin V staining and FACS, suspension culture; type: cell-based
Method: FIG. 17 is a graph showing that HYD1 induces apoptosis as a single agent in 8226 and H929 cells cultured in suspension. 8226 and H929 cells were either treated with varying concentrations of HYD1 or vehicle control (equal volume sterile double distilled water) for 24 hours and apoptotic cells were detected by FACS analysis of annexin V positive cells. HYD1 specific apoptosis equals cell death due to peptide minus any apoptosis detected in control cells.
200 μM ZVAD-FMK was added to H929 cells for 30 minutes prior to the addition of either 75 μg/ml HYD1S or 15 μM Melphalan. Apoptosis was measured 24 hours after drug treatment by annexin/PI staining and apoptotic cells were detected by FACS analysis. Three independent experiments were performed and shown is a representative experiment.
Detection of Apoptosis. […] Blood, 1999; 93:1658-1667). The assay was performed in triplicate and 3 independent experiments were performed. Caspase 3 and 8 activity was measured at 6 and 24 hrs post peptide treatment per manufactures' instructions (BD Biosciences, San Jose, Calif.). The caspase assays were performed in triplicate and repeated twice.
Myeloma cells were plated at a density of 400,000 cells per ml in a 24 well plate. Cells were treated with the indicated dose of the peptide for 24 hours. Following 24 hrs of peptide exposure, apoptotic cells were detected using Annexin V staining and FACS analysis. Ten thousand events were analyzed by flow cytometry (Becton Dickinson, San Jose, Calif.). Experiments were performed in triplicate and repeated twice. Shown is a representative figure.

kikmviswkg ([dK][dI][dK][dM][dV][dI][dS][dW][dK]G) [HYD1]
tumor growth in vivo compared to vehicle control (H929 MM): reduces H929 MM growth in vivo | protection from induced cell death by pan caspase inhibitor ZVAD-FMK (H929 cells; H929 cells, 200 μM ZVAD-FMK 30 minutes prior, apoptosis at 24 hours, annexin/PI): only marginally protected | annexin V positive cells following 6 hours of treatment (H929 cells; H929 cells, 6 hours): can be detected | induction of annexin V positive cells (H929 cells; H929 cells, suspension culture, single agent, 24 hours): dose dependent induction of annexin V positive cells | melphalan-induced apoptosis in cells cultured in suspension (H929 cells; H929 cells, suspension, peptide with melphalan): increased melphalan-induced apoptosis | sensitivity to HYD1 treatment, H929 compared to 8226 cells (H929 cells; suspension culture): H929 cells are more sensitive
